Entries after “also recorded” stand apart in the source; their conditions may differ. Values belong to the compound of their own block, whether it stands above or below them.
Tests used:
glycogenin = molecular target: T1, glycogenin (Bos taurus, UniProt Q29RN2); test: Glycogenin assay: transfer of glucose or xylose from the UDP-sugar to exogenous glycoside acceptors; type: biochemical, beef; conditions: for inhibition of transfer of [3H]glucose to DBM by glycogenin: inhibitor 0.1-0.5 mM, acceptor DBM; for activity as glucose acceptor substrate for glycogenin: UDP-[3H]glucose donor, 60 min at 37° C.
T1 construct: chromatography of a 105,000×g supernatant from a homogenate of beef kidney on DE-53 cellulose; tissue local slaughter house; host or cells: beef kidney
T1 sequence (Q29RN2 1-333): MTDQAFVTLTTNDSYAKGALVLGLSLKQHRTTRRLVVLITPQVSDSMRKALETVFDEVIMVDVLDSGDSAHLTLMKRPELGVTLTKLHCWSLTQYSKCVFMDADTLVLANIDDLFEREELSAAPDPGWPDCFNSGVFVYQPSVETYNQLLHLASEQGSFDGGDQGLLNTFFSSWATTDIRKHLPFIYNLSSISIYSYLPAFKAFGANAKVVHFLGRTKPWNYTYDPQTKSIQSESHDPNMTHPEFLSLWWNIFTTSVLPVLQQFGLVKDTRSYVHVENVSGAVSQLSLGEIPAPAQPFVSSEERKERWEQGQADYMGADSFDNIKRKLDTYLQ
Excerpt: Glycogenin is a self-glycosylating glycosyltransferase which can be obtained from muscle and which can also be obtained from rat and beef kidney. The enzyme is capable of transferring glucose and xylose from the respective UDP-sugar substrates to itself and also of transferring these sugars to exogenous acceptors, such as dodecyl-β-D-maltoside, tetradecyl-β-D-maltoside, octyl-β-D-maltoside, octyl-α-D-glucoside and other glycosides, as described herein.
Fresh beef kidney was purchased from a local slaughter house. Purification of glycogenin from kidney involves the following steps: chromatography of a 105,000×g supernatant from a homogenate of beef kidney on DE-53 cellulose, chromatofocusing and chromatography on a column of UDP-glucuronic acid-agarose, which was eluted with cytidine 5'-diphosphate(CDP). […] The protein concentration of the affinity purified enzyme was determined to be 10 μg/ml with the Quantigold protein reagent (Diversified Biotech, Newton Centre, Mass.).
An appropriate sample of UDP-[^3 H] glucose or UDP-[^3 H] xylose (supplied in 70% ethanol by the manufacturer) was evaporated to dryness with a gentle stream of filtered air and dissolved in 50 mM Tris Cl, pH 7.4/75 mM BAL/1.5 mM ATP. […] After incubation for 60 min at 37° C. product formation was measured by either of the two procedures described below.
Product isolation by precipitation with trichloracetic acid. After completed incubation, 1% bovine serum albumin (50 μl) and 10% trichloracetic acid/4% phosphotungstic acid (150 μl) were added, and the mixture was vortexed and kept on ice for at least 15 min. The precipitate was sedimented by centrifugation in a microfuge and washed three times with 5% trichloroacetic acid. The bottom of the tube, containing the pellet, was clipped off with a dog nail clipper and dropped into a 6 ml scintillation vial, the protein was dissolved in 250 μl of 2M NaOH, and, after neutralization with 250 μl of 2M HCl, 4.5 ml of Ecolume was added, and the radioactivity was measured.
Product isolation by adsorption to SepPak C18 cartridges. The reaction mixture was brought to a, volume of 0.5 ml by addition of water and was heated to 100° C. for 1 min. After cooling to room temperature, the mixture was centrifuged, and a 10 μl aliquot was removed for measurement of total radioactivity. The remaining 490 μl was applied with the use of a 10 ml syringe to a SepPak C18 cartridge, which had been preconditioned by washing with 8 ml of 95% ethanol, 8 ml of 70% ethanol, and 20 ml of water. After sample application, the cartridge was washed with 2×9 ml of water, followed by an additional 2 ml portion of water, and adsorbed radioactive material was then eluted with 3×4 ml of 70% ethanol. Typically, no significant radioactivity was found in the last water wash, and most of the bound radioactive material was found in the first ethanol eluate.
Gel electrophoresis and autoradiography. SDS-PAGE was carried out with slight modification of Laemmli (Laemmli, U. K., Nature, 227:680-685 (1970)). A Hoefer vertical slab gel electrophoresis unit (Hoefer Scientific Instruments, San Francisco, Calif.) was used for casting and electrophoresing with a 10% (w/v) acrylamide separating gel and a 4.5% (w/v) acrylamide stacking gel. Reaction mixtures, with total volumes of 75 μl, containing 0.15 μCi (0.26 μM) UDP-[^3 H] glucose, 10 ng of affinity purified enzyme (intact or heat denatured), in the absence and presence of increasing concentrations of DBM were incubated at 37° C. for 60 min. The reaction was terminated by addition of 5 μl of water and 20 μl of sample reducing buffer (5× concentrated) to give final concentrations of 40 mM Tris-Cl, pH 6.8, 1.5% (w/v) SDS, 6% (v/v) glycerol, 100 mM DTT and 0.002% (w/v) bromophenol blue and heated to 100° C. for 3 min. The supernatant was applied to the gel and electrophoresed at 7.5 mA for 16 hours. […]

[1] = molecular target: T2, Rabbit muscle glycogen synthase (Oryctolagus cuniculus, UniProt P13834); test: Glycogen synthase assay: glucose transfer from UDP-glucose to acceptor; type: biochemical; conditions: for rank as glucose acceptor for glycogen synthase: octyl-, dodecyl- and tetradecyl-maltosides compared, with G-6-P
T2 construct: purchased Sigma Chemical Co; host or cells: rabbit muscle
T2 sequence (P13834 1-735): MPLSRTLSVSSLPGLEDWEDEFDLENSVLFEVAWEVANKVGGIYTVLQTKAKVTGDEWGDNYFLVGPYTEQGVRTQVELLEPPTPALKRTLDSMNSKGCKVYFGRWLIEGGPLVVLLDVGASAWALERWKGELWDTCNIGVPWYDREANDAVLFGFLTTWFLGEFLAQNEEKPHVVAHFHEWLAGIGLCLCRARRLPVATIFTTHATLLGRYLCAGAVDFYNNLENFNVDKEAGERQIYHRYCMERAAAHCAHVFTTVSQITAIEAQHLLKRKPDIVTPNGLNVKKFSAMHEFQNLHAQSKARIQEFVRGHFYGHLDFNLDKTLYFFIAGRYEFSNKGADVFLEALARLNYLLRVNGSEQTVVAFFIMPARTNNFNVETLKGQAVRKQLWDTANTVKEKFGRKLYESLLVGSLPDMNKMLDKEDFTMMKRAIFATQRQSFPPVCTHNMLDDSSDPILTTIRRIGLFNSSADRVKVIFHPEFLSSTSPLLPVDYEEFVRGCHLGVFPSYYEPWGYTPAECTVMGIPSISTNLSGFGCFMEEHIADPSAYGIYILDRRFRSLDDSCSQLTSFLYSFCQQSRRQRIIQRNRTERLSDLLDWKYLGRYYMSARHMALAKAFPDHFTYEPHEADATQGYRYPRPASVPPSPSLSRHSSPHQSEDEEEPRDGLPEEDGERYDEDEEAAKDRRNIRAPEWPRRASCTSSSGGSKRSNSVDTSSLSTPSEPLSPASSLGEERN
Protocol: Rabbit muscle glycogen synthase obtained from Sigma Chemical Co., (7.6 μg) was incubated with 0.45 μCi UDP-[^3 H]glucose (specific activity of 10.4 Ci/mmol), 1 mM UDP-glucose (glucose donor), 10 mM glucose-6-phosphate (the natural activator of glycogen synthase) and 1 mg glycogen (glucose acceptor) in 25 mM EDTA/5 mM DTT/100 mM glycine. NaOH buffer, pH 8.6 in a total volume of 100 μl for 30-240 minutes at 37° C. At different time points, glycogen was precipitated from the reaction mixtures with ethanol and the precipitate washed to remove any unincorporated radiolabel. The glycogen precipitate was then solubilized and counted in a liquid scintillation counter to quantitate the amount of [^3 H]glucose incorporated into glycogen.
Results. When DBM (0.5 mM) replaces glycogen as the glucose acceptor in the incubation mixture, a linear transfer of glucose to DBM with time is seen up to 4 hours, with the glucose transfer amounting to about 20% of the maximal value seen with glycogen (using the SepPak C18 assay).
When glycogen synthase was incubated for 24 hours with G-6-P, UDP-[^3 H]glucose and 0.5 mM DBM, several products of glucose transfer to DBM could be visualized following separation by thin layer chromatography and autoradiography. These products corresponded to the dodecyl-maltotrioside,-tetraoside, -pentaoside, -hexaoside, -heptaoside and higher oligosaccharide derivatives of DBM. […] Therefore, DBM and other suitable glycosides can serve as glucose acceptors for both glycogen synthase and glycogenin to promote glucose disposal in conditions such as hyperglycemia and diabetes mellitus. Providing an abundance of acceptor substrates in tissues, such as liver, which has a smaller number of extremely large glycogen molecules can alleviate the problem of excessive glycogen deposition in the glycogen storage diseases by promoting glucose disposal into more readily handled smaller glucose polymers built on DBM or other glycosides.

- activity as glucose acceptor substrate for glycogenin (glycogenin): activities are low
Compound: CCCCCCCCO[C@@H]1O[C@H](CO)[C@@H](O)[C@H](O)[C@H]1O [octyl-β-D-glucoside]

- rank as glucose acceptor for glycogen synthase [1]: best acceptor
Compound: CCCCCCCCO[C@@H]1O[C@H](CO)[C@@H](O[C@H]2O[C@H](CO)[C@@H](O)[C@H](O)[C@H]2O)[C@H](O)[C@H]1O [octyl-β-D-maltoside]
- activity as glucose acceptor substrate for glycogenin (glycogenin): capable of serving as acceptor substrates

- rank as glucose acceptor for glycogen synthase [1]: followed by DBM and tetradecylmaltoside
Compound: CCCCCCCCCCCCCCO[C@@H]1O[C@H](CO)[C@@H](O[C@H]2O[C@H](CO)[C@@H](O)[C@H](O)[C@H]2O)[C@H](O)[C@H]1O [tetradecyl-β-D-maltoside]
- activity as glucose acceptor substrate for glycogenin (glycogenin): capable of serving as acceptor substrates

- activity as glucose acceptor substrate for glycogenin (glycogenin): much lower activity
Compound: dodecyl-β-D-sucrose

Further lines, the compound ahead of its results:

Compound: Nc1ccn([C@@H]2O[C@H](COP(=O)(O)OP(=O)(O)O)[C@@H](O)[C@H]2O)c(=O)n1 [Cytidine 5'-diphosphate, reference compound]
- inhibition of transfer of [3H]glucose to DBM by glycogenin (glycogenin): inhibited the transfer of [^3 H]glucose to DBM by glycogenin in a dose dependent manner
- inhibition of transfer of [3H]glucose to DBM by glycogenin (glycogenin; listed as CDP): dose-dependent inhibition

Compound: CCCCCCCCCCCCO[C@@H]1O[C@H](CO)[C@@H](O[C@H]2O[C@H](CO)[C@@H](O)[C@H](O)[C@H]2O)[C@H](O)[C@H]1O [DBM, dodecyl-β-D-maltoside]
- glucose transfer relative to maximal value seen with glycogen ([1]; 0.5 mM acceptor replacing glycogen, up to 4 hours, SepPak C18 assay): about 20%
- acceptor concentration giving near-maximal glycogen synthase activity ([1]; 0.1 to 10 mM acceptor, 60 min incubation): less than 0.5 mM
- length of acceptor-linked oligosaccharide products formed by glycogen synthase ([1]; 24 hours with G-6-P, UDP-[3H]glucose, 0.5 mM acceptor, TLC and autoradiography): greater than seven glucose residues
- activity as glucose acceptor substrate for glycogenin (glycogenin): dose-dependent fashion; also recorded: best acceptor for glucose
- xylose acceptor for glycogenin (product formed) (glycogenin; UDP-[3H]xylose as donor substrate): DBM-xylose was formed
- glucose acceptor activity of DBM relative to octyl-β-D-maltoside (glycogenin; comparator octyl-β-D-maltoside): four times better
- glucose acceptor activity of DBM relative to tetradecyl-β-D-maltoside (glycogenin; comparator tetradecyl-β-D-maltoside): twice as active

Compound: CCCCCCCCO[C@H]1O[C@H](CO)[C@@H](O)[C@H](O)[C@H]1O [Octyl-α-D-glucoside]
- activity as glucose acceptor substrate for glycogenin (glycogenin): effective glucose acceptor

Compound: CCCCCCCCCCO[C@@H]1O[C@H](CO)[C@@H](O[C@H]2O[C@H](CO)[C@@H](O)[C@H](O)[C@H]2O)[C@H](O)[C@H]1O [decyl-β-D-maltoside]
- activity as glucose acceptor substrate for glycogenin (glycogenin): capable of serving as acceptor substrates

Compound: CCCCCCCCS[C@@H]1O[C@H](CO)[C@@H](O)[C@H](O)[C@H]1O [octyl-β-D-thioglucoside]
- activity as glucose acceptor substrate for glycogenin (glycogenin): more active as a glucose acceptor than octyl-β-D-glucoside
